{
  "source": "patent US12036193B2",
  "about": "“Synergistic bioactive compositions for treating neurological disorders” (priority 2019, dated 2024)",
  "key": {"[1]": {"assay": "Rat feed consumption in global ischemia reperfusion induced brain injury study", "settings": "Standard 9.3 mg/kg, Agmatine sulphate 310 mg/kg, Bio-optimized PEA 372 mg/kg, combination 310+372 mg/kg, p.o. daily"}, "Interleukin - 6": {"tested_on": "Interleukin - 6", "assay": "Rat Interleukin-6 level after global cerebral ischemia/reperfusion", "assay_type": "in vivo, Wistar rats", "settings": "mean ± SEM, n=6; oral 10 days, 30 min ischemia on 7th day + 72 hrs reperfusion; Standard 9.3, Agmatine sulphate 310, Bio-optimized PEA 372, combination 310+372 mg/kg; I/R control 121.83 ± 1.65"}, "TNF alpha": {"tested_on": "TNF alpha", "assay": "Rat TNF alpha level after global cerebral ischemia/reperfusion", "assay_type": "in vivo, Wistar rats", "settings": "mean ± SEM, n=6; oral 10 days, 30 min ischemia on 7th day + 72 hrs reperfusion; Standard 9.3, Agmatine sulphate 310, Bio-optimized PEA 372, combination 310+372 mg/kg; I/R control 172.17 ± 6.35"}, "[2]": {"assay": "Rat body weight in global ischemia reperfusion induced brain injury study", "settings": "n=6, Standard 9.3 mg/kg, Agmatine sulphate 310 mg/kg, Bio-optimized PEA 372 mg/kg, combination 310+372 mg/kg, p.o. daily"}},
  "data": [
    {"smiles": "N=C(N)NCCCCN.O=S(=O)(O)O", "note": "[Agmatine sulphate, 1-(4-Aminobutyl)guanidine sulfate]", "values": [
      {"measurement": "Feed Consumption, Week 01", "setting": "[1]", "value": "99.57 ± 1.19", "unit": "gm"},
      {"measurement": "Interleukin - 6 Levels", "setting": "Interleukin - 6", "value": "91.39 ± 0.92", "unit": "pg/mL"},
      {"measurement": "TNF alpha Level", "setting": "TNF alpha", "value": "142.00 ± 1.53", "unit": "pg/mL"},
      {"measurement": "Body Weight, Week 01", "setting": "[2]; Week 01, mean ± SEM", "value": "224.33 ± 0.42", "unit": "gm"},
      {"measurement": "Body Weight, Basal", "setting": "[2]; basal, mean ± SEM", "value": "215.00 ± 0.73", "unit": "gm"}
    ]}
  ]
}
